From patent publication EP4617278A1, “NUCLEOTIDE ANALOG, AND COMPOSITION AND USE THEREOF” (priority 2022, dated 2024) come the findings set out here.

This experiment has as its system RSV A2 virus. As to the kind of experiment: RSV CPE assay. Conditions: read-out: RSV A2 (Hep-2 cell) EC50.
The mark [1] stands for this setting: HEp-2 cells, RSV A2 virus, 5 days, CCK8.
[2] abbreviates: human respiratory syncytial virus, HEp-2, 120 h.

Where two headings read alike, the source gives them in different places.

As to `CC(C)C(=O)O[C@H]1[C@@H](OC(=O)C(C)C)[C@](C#N)(c2ccc3c(N)ncnn23)O[C@@H]1CO[P@](=O)(N[C@@H](Cc1ccccc1)C(=O)OC1CCC1)Oc1ccccc1` [Compound 63a], the concentration giving a half-maximal response (EC50) under setting [1] was in the range of 200 to 500 nM.
For the molecule `CCC(CC)COC(=O)C[C@H](N[P@@](=O)(OC[C@H]1O[C@@](C#N)(c2ccc3c(N)ncnn23)[C@H](OC(=O)C(C)C)[C@@H]1OC(=O)C(C)C)Oc1ccccc1)C(=O)OCC(CC)CC` [Compound 62a, (2R,3R,4R,5R)-2-(4-aminopyrrolo[2,1-f][1,2,4]triazin-7-yl)-2-cyano-5-((((R)-(((S)-1,4-bis(2-ethylbutoxy)-1,4-dioxobutan-2-yl)amino)(phenoxy)phosphoryl)oxy)methyl)tetrahydrofuran-3,4-diyl bis(2-methylpropionate)], the EC50 under setting [2] lay within 200 to 500 nM.
Still for that read-out and setting: the result for `CC(C)OC(=O)OCO[P@@](=O)(OC[C@H]1O[C@@](C#N)(c2ccc3c(N)ncnn23)[C@H](OC(=O)C(C)C)[C@@H]1OC(=O)C(C)C)Oc1ccc(C(C)(C)C)cc1` [Compound 24a, (2R,3R,4R,5R)-2-(4-aminopyrrolo[2,1-f][1,2,4]triazin-7-yl)-5-((((S)-(4-tert-butylphenoxy)(((isopropoxycarbonyl)oxy)methoxy)phosphoryl)oxy)methyl)-2-cyanotetrahydrofuran-3,4-diyl bis(2-methylpropionate)] reads more than 1000 nM; that for `CC(C)OC(=O)OCOP(=O)(OCOC(=O)OC(C)C)OC[C@H]1O[C@@](C#N)(c2ccc3c(N)ncnn23)[C@H](OC(=O)C(C)(C)C)[C@@H]1OC(=O)C(C)(C)C` [Compound 20, (2R,3R,4R,5R)-2-(4-aminopyrrolo[2,1-f][1,2,4]triazin-7-yl)-5-((((bis(((isopropoxycarbonyl)oxy)methoxy))phosphoryl)oxy)methyl)-2-cyanotetrahydrofuran-3,4-diyl bis(2,2-dimethylpropionate)], more than 1000 nM.
On the same count and under the same terms, the result for `CC(C)C(=O)O[C@H]1[C@@H](OC(=O)C(C)C)[C@](C#N)(c2ccc3c(N)ncnn23)O[C@@H]1COP(=O)(OCOC(=O)C(C)(C)C)OCOC(=O)C(C)(C)C` [Compound 29, (2R,3R,4R,5R)-2-(4-aminopyrrolo[2,1-f][1,2,4]triazin-7-yl)-5-((((bis(((tert-butylcarbonyl)oxy)methoxy))phosphoryl)oxy)methyl)-2-cyanotetrahydrofuran-3,4-diyl bis(2-methylpropionate)] reads 500 to 1000 nM.
In the case of “(2R,3R,4R,5R)-2-(4-aminopyrrolo[2,1-f][1,2,4]triazin-7-yl)-2-cyano-5-((((S)-(((S)-1,4-dicyclobutoxy-1,4-dioxobutan-2-yl)amino)(phenoxy)phosphoryl)oxy)methyl)tetrahydrofuran-3,4-diyl dipropionate [Compound 56b]”, under setting [1], the EC50 was in the range of 100 to 200 nM.
Regarding `CCC(CC)COC(=O)[C@H](Cc1ccccc1)N[P@](=O)(OC[C@H]1O[C@@](C#N)(c2ccc3c(N)ncnn23)[C@H](OC(=O)C(C)C)[C@@H]1OC(=O)C(C)C)Oc1ccccc1` [Compound 41b, (2R,3R,4R,5R)-2-(4-aminopyrrolo[2,1-f][1,2,4]triazin-7-yl)-2-cyano-5-((((S)-(((S)-1-(2-ethylbutoxy)-1-oxo-3-phenylpropan-2-yl)amino)(phenoxy)phosphoryl)oxy)methyl)tetrahydrofuran-3,4-diyl bis(2-methylpropionate)], the half-maximal effective concentration (EC50) under setting [2] was less than 100 nM.
“(2R,3R,4R,5R)-2-(4-aminopyrrolo[2,1-f][1,2,4]triazin-7-yl)-5-((((bis(((isopropoxycarbonyl)oxy)methoxy))phosphoryl)oxy)methyl)-2-cyanotetrahydrofuran-3,4-diyldiisopropyl bis(carbonate) [Compound 28]”: the 50% effective concentration (EC50) under setting [1] is more than 1000 nM.
“(2R,3R,4R,5R)-2-(4-aminopyrrolo[2,1-f][1,2,4]triazin-7-yl)-2-cyano-5-((((R)-(((S)-1-isopropoxy-1-oxopropan-2-yl)amino)(((isopropoxycarbonyl)oxy)methoxy)phosphoryl)oxy)methyl)tetrahydrofuran-3,4-diyl diacetate [Compound 1a]”: the EC50 under setting [1] fell in the range of 100 to 200 nM.
Regarding “(2R,3R,4R,5R)-2-(4-aminopyrrolo[2,1-f][1,2,4]triazin-7-yl)-2-cyano-5-((((R)-(((S)-1-(2-ethylbutoxy)-1-oxopropan-2-yl)amino)(((isopropoxycarbonyl)oxy)methoxy)phosphoryl)oxy)methyl)tetrahydrofuran-3,4-diyl diacetate [Compound 5a]”, the concentration giving a half-maximal response (EC50) under setting [1] lay in the range of 200 to 500 nM.
For `CC(C)C(=O)OCOP(=O)(OC[C@H]1O[C@@](C#N)(c2ccc3c(N)ncnn23)[C@H](OC(=O)C(C)C)[C@@H]1OC(=O)C(C)C)Oc1ccc(C(C)(C)C)cc1` (mixture of isomers) [Compound 26, (2R,3R,4R,5R)-2-(4-aminopyrrolo[2,1-f][1,2,4]triazin-7-yl)-5-((((4-tert-butylphenoxy)((isobutyryloxy)methoxy)phosphoryl)oxy)methyl)-2-cyanotetrahydrofuran-3,4-diyl bis(2-methylpropionate)], under setting [2], the 50% effective concentration (EC50) was more than 1000 nM.
On to “(2R,3R,4R,5R)-2-(4-aminopyrrolo[2,1-f][1,2,4]triazin-7-yl)-2-cyano-5-((((R)-(((S)-1,4-bicyclopentyloxy-1,4-dioxobutan-2-yl)amino)(phenoxy)phosphoryl)oxy)methyl)tetrahydrofuran-3,4-diyl diacetate [Compound 58a]”, for which the half-maximal effective concentration (EC50) under setting [1] was in the range of 200 to 500 nM.
Still for that read-out and setting: as for “(2R,3R,4R,5R)-2-(4-aminopyrrolo[2,1-f][1,2,4]triazin-7-yl)-2-cyano-5-((((S)-(((S)-1,4-dicyclobutoxy-1,4-dioxobutan-2-yl)amino)(phenoxy)phosphoryl)oxy)methyl)tetrahydrofuran-3,4-diyl diacetate [Compound 55b]”, the figure is 100 to 200 nM.
On to `CC(C)OC(=O)OCO[P@](=O)(N[C@@H](C)C(=O)OC(C)C)OC[C@H]1O[C@@](C#N)(c2ccc3c(N)ncnn23)[C@H](OC(=O)C(C)C)[C@@H]1OC(=O)C(C)C` [Compound 3b, (2R,3R,4R,5R)-2-(4-aminopyrrolo[2,1-f][1,2,4]triazin-7-yl)-2-cyano-5-((((S)-(((S)-1-isopropoxy-1-oxopropan-2-yl)amino)(((isopropoxycarbonyl)oxy)methoxy)phosphoryl)oxy)methyl)tetrahydrofuran-3,4-diyl bis(2-methylpropionate)], for which the EC50 under setting [2] lay within 100 to 200 nM.
With `CCC(CC)COC(=O)[C@H](Cc1ccccc1)N[P@@](=O)(OC[C@H]1O[C@@](C#N)(c2ccc3c(N)ncnn23)[C@H](OC(=O)C(C)C)[C@@H]1OC(=O)C(C)C)Oc1ccc(C(C)(C)C)cc1` [Compound 53a, (2R,3R,4R,5R)-2-(4-aminopyrrolo[2,1-f][1,2,4]triazin-7-yl)-2-cyano-5-((((((S)-1-(2-ethylbutoxy)-1-oxo-3-phenylpropan-2-yl)amino)((R)-4-tert-butylphenoxy)phosphoryl)oxy)methyl)tetrahydrofuran-3,4-diyl bis(2-methylpropionate)], under setting [1], the concentration for a half-maximal effect (EC50) is less than 100 nM.
Take `CC(C)(C)C(=O)O[C@H]1[C@@H](OC(=O)C(C)(C)C)[C@](C#N)(c2ccc3c(N)ncnn23)O[C@@H]1CO[P@](=O)(N[C@@H](CC(=O)OC1CCC1)C(=O)OC1CCC1)Oc1ccccc1` [Compound 57a, (2R,3R,4R,5R)-2-(4-aminopyrrolo[2,1-f][1,2,4]triazin-7-yl)-2-cyano-5-((((R)-(((S)-1,4-dicyclobutoxy-1,4-dioxobutan-2-yl)amino)(phenoxy)phosphoryl)oxy)methyl)tetrahydrofuran-3,4-diyl bis(2,2-dimethylpropionate)]: the EC50 under setting [2] was 500 to 1000 nM.
The same measure, in the same setting: as for `CC(C)(C)C(=O)O[C@H]1[C@@H](OC(=O)C(C)(C)C)[C@](C#N)(c2ccc3c(N)ncnn23)O[C@@H]1CO[P@@](=O)(N[C@@H](CC(=O)OC1CCC1)C(=O)OC1CCC1)Oc1ccccc1` [Compound 57b, (2R,3R,4R,5R)-2-(4-aminopyrrolo[2,1-f][1,2,4]triazin-7-yl)-2-cyano-5-((((S)-(((S)-1,4-dicyclobutoxy-1,4-dioxobutan-2-yl)amino)(phenoxy)phosphoryl)oxy)methyl)tetrahydrofuran-3,4-diyl bis(2,2-dimethylpropionate)], the figure is 200 to 500 nM; as for `CC(C)(C)C(=O)O[C@H]1[C@@H](OC(=O)C(C)(C)C)[C@](C#N)(c2ccc3c(N)ncnn23)O[C@@H]1CO[P@](=O)(N[C@H](C=O)CC(=O)OC1(C2CCCC2)CCCC1)Oc1ccccc1` [Compound 61a, (2R,3R,4R,5R)-2-(4-aminopyrrolo[2,1-f][1,2,4]triazin-7-yl)-2-cyano-5-((((R)-(((S)-1,4-bicyclopentyloxy-1,4-dioxobutan-2-yl)amino)(phenoxy)phosphoryl)oxy)methyl)tetrahydrofuran-3,4-diyl bis(2,2-dimethylpropionate)], more than 1000 nM; as for `COC(C)(C)COC(=O)[C@H](Cc1ccccc1)N[P@@](=O)(OC[C@H]1O[C@@](C#N)(c2ccc3c(N)ncnn23)[C@H](OC(=O)C(C)C)[C@@H]1OC(=O)C(C)C)Oc1ccccc1` [Compound 64a, (2R,3R,4R,5R)-2-(4-aminopyrrolo[2,1-f][1,2,4]triazin-7-yl)-2-cyano-5-((((R)-(((S)-1-(2-methoxy-2-methylpropoxy)-1-oxo-3-phenylpropan-2-yl)amino)(phenoxy)phosphoryl)oxy)methyl)tetrahydrofuran-3,4-diyl bis(2-methylpropionate)], 100 to 200 nM.
Consider `CCC(CC)COC(=O)[C@H](Cc1ccccc1)N[P@@](=O)(OCOC(=O)OC(C)C)OC[C@H]1O[C@@](C#N)(c2ccc3c(N)ncnn23)[C@H](OC(=O)C(C)C)[C@@H]1OC(=O)C(C)C` [Compound 31b, (2R,3R,4R,5R)-2-(4-aminopyrrolo[2,1-f][1,2,4]triazin-7-yl)-2-cyano-5-((((S)-(((S)-1-(2-ethylbutoxy)-1-oxo-3-phenylpropan-2-yl)amino)(((isopropoxycarbonyl)oxy)methoxy)phosphoryl)oxy)methyl)tetrahydrofuran-3,4-diyl bis(2-methylpropionate)], for which the EC50 under setting [2] lay within 200 to 500 nM.
